Measurements published in the NIST ThermoML archive (doi:10.1016/j.jct.2010.11.006).
± gives the expanded uncertainty stated by the source.

Columns and labels:
[1] = Crystal; for Normal melting temperature: DTA
[2] = Molar enthalpy of transition or fusion; settings: Crystal; DSC
[3] = molar enthalpy of vaporization or sublimation; settings: 298.15 K; Crystal; Calver Calorimeter- drop method

Row | molar enthalpy of sublimation ([1]; 298.15 K, Calver Calorimeter- drop method) [kcal/mol] | Normal melting temperature [1] [°C] | Molar enthalpy of transition or fusion [2] [kcal/mol] | molar enthalpy [3] [kcal/mol] | SMILES
1 | 28.2 ± 1.82 | 178.24 ± 0.39 | 6.04 ± 0.143 |  | O=C1CSc2ccccc2N1 [2H-1,4-benzothiazin-3(4H)-one]
2 |  | 155.64 ± 0.39 | 4.99 ± 0.117 | 26.9 ± 1.2 | O=c1[nH]sc2ccccc12 [1,2-benzisothiazol-3(2H)-one]
